The record followed here is US11530207B2, “Compounds for the treatment of cancer” (SKYHAWK THERAPEUTICS, INC., priority 2018, dated 2022).

The assay deals with A673 cells. Put plainly: Dose-response cell proliferation assay in A673 cells (crystal violet). The class given is cell-based. The following applies: Homo sapiens, A673 cells, 10,000 cells per well, 72 h treatment. The method, then: Small molecule splicing modulators were tested in a dose-response assay using A673 cells. A673 cells were first plated in 96-well plastic tissue culture plates (10,000 cells per well). The cells were treated with vehicle alone (DMSO), or increasing concentrations of SMSM compounds for 72 h. Following treatment, cell proliferation was determined using a crystal violet assay. The relative cell proliferation at each concentration was determined.
By IC50 is commonly meant the concentration that gives 50% inhibition. Read a low IC50 as inhibition by little substance. Molecule `CNC(=O)/C=C/c1cc(O)c(-c2ccc(N(C)[C@H]3C[C@]4(C)CC[C@](C)(C3)N4)nn2)cc1F` [SMSM 9] showed an IC50 of 1950 nM. In turn, `CNC(=O)/C=C/c1ccc(-c2ccc(O[C@@H]3C[C@@H]4C[C@H]3CN4)nn2)c(O)c1` [SMSM 22, (E)-3-(4-(6-(((1S,4S,5R)-2-azabicyclo[2.2.1]heptan-5-yl)oxy)pyridazin-3-yl)-3-hydroxyphenyl)-N-methylacrylamide] yielded an IC50 of 330 nM. As for `CNC(=O)/C=C/c1ccc(-c2ccc(N3C[C@H]4CNC[C@H]4C3)nn2)c(O)c1` [SMSM 2, (E)-3-(4-(6-((3aR,6aS)-hexahydropyrrolo[3,4-c]pyrrol-2(1H)-yl)pyridazin-3-yl)-3-hydroxyphenyl)-N-methylacrylamide], the figure is 9 nM; as for `CNC(=O)/C=C/c1ccc(-c2ccc(N(C)[C@H]3C[C@]4(C)CCC[C@](C)(C3)N4)nn2)c(O)c1` [SMSM 14, (E)-3-(4-(6-(((1R,3s,5S)-1,5-dimethyl-9-azabicyclo[3.3.1]nonan-3-yl)(methyl)amino)pyridazin-3-yl)-3-hydroxyphenyl)-N-methylacrylamide], 1.6 nM; as for `CNC(=O)/C=C/c1cc(O)c(-c2ccc(N(C3CC3)[C@H]3C[C@]4(C)CCC[C@](C)(C3)N4)nn2)cc1F` [SMSM 13, (E)-3-(4-(6-(cyclopropyl((lR,3s,5 S)-1,5-dimethyl-9-azabicyclo[3.3.1]nonan-3-yl)amino)pyridazin-3-yl)-2-fluoro-5-hydroxyphenyl)-N-methylacrylamide], more than 1000 nM. In turn, `CN(C)C(=O)/C=C/c1ccc(-c2ccc(N(C)[C@@H]3C[C@H]4CCC[C@@H](C3)N4)nn2)c(O)c1` [SMSM 7, (E)-3-(4-(6-(((1R,3s,5S)-9-azabicyclo[3.3.1]nonan-3-yl)(methyl)amino)pyridazin-3-yl)-3-hydroxyphenyl)-N,N-dimethylacrylamide] yielded a half-maximal inhibitory concentration (IC50) of 3.7 nM. As for `CNC(=O)/C=C/c1cc(O)c(-c2ccc(N3C[C@H]4CNC[C@H]4C3)nn2)cc1F` [SMSM 1, (E)-3-(2-fluoro-4-(6-((3aR,6aS)-hexahydropyrrolo[3,4-c]pyrrol-2(1H)-yl)pyridazin-3-yl)-5-hydroxyphenyl)-N-methylacrylamide], the figure is 91 nM; as for `CNC(=O)/C=C/c1ccc(-c2ccc(N(C)C3CC(C)(C)NC(C)(C)C3)nn2)c(O)c1` [SMSM 16, (E)-3-(3-hydroxy-4-(6-(methyl(2,2,6,6-tetramethylpiperidin-4-yl)amino)pyridazin-3-yl)phenyl)-N-methylacrylamide], 0.2 nM. `CNC(=O)/C=C/c1cc(O)c(-c2ccc(N3CCC(N)CC3)nn2)cc1F` [SMSM 17, (E)-3-(4-(6-(4-aminopiperidin-1-yl)pyridazin-3-yl)-2-fluoro-5-hydroxyphenyl)-N-methylacrylamide]: the IC50 is 0.3 nM. With `CNC(=O)/C=C/c1ccc(-c2ccc(N(C)[C@@H]3C[C@H]4CCC[C@@H](C3)N4)nn2)c(O)c1` [SMSM 6, (E)-3-(4-(6-(((1R,3s,5S)-9-azabicyclo[3.3.1]nonan-3-yl)(methyl)amino)pyridazin-3-yl)-3-hydroxyphenyl)-N-methylacrylamide], half-maximal inhibition (IC50) required 3120 nM. On to `CNC(=O)/C=C/c1ccc(-c2ccc(O[C@@H]3C[C@H]4CCC[C@@H](C3)N4)nn2)c(O)c1` [SMSM 20, (E)-3-(4-(6-(((1R,3s,5S)-9-azabicyclo[3.3.1]nonan-3-yl)ypoxy)pyridazin-3-yl)-3-hydroxyphenyl)-N-methylacrylamide], for which the IC50 was 793 nM.

`CNC(=O)/C=C/c1cc(O)c(-c2ccc(N(C)[C@@H]3C[C@H]4CCC[C@@H](C3)N4)nn2)cc1F` [SMSM 8, (E)-3-(4-(6-(((1R,3s,5S)-9-azabicyclo[3.3.1]nonan-3-yl)(methyl)amino)pyridazin-3-yl)-2-fluoro-5-hydroxyphenyl)-N-methylacrylamide] displayed an IC50 of 20 nM. Compared with the last molecule, the IC50 is about 40-fold lower. `CN(c1ccc(-c2ccc(/C=C/c3nnn[nH]3)cc2O)nn1)[C@H]1C[C@]2(C)CC[C@](C)(C1)N2` [SMSM 12, 5-((E)-2-(1H-tetrazol-5-yl)vinyl)-2-(6-(((1R,3s,5S)-1,5-dimethyl-8-azabicyclo[3.2.1]octan-3-yl)(methyl)amino)pyridazin-3-yl)phenol] gave an IC50 of more than 1000 nM.

In turn, `CNC(=O)/C=C/c1cc(O)c(-c2ccc(N(C3CC3)[C@H]3C[C@]4(C)CC[C@](C)(C3)N4)nn2)cc1F` [SMSM 11, (E)-3-(4-(6-(cyclopropyl((1R,3s,5 S)-1,5-dimethyl-8-azabicyclo[3.2.1]octan-3-yl)amino)pyridazin-3-yl)-2-fluoro-5-hydroxyphenyl)-N-methylacrylamide] registered an IC50 of 1390 nM. `CN(C(=O)/C=C/c1ccc(-c2ccc(N(C)[C@@H]3C[C@H]4CCC[C@@H](C3)N4)nn2)c(O)c1)C1CC1` [SMSM 5, (E)-3-(4-(6-(((1R,3s,5S)-9-azabicyclo[3.3.1]nonan-3-yl)(methyl)amino)pyridazin-3-yl)-3-hydroxyphenyl)-N-cyclopropyl-N-methylacrylamide]: the IC50 came out at 554 nM. As for `CNC(=O)/C=C/c1ccc(-c2ccc(N3CCC(N)CC3)nn2)c(O)c1` [SMSM 18, (E)-3-(4-(6-(4-aminopiperidin-1-yl)pyridazin-3-yl)-3-hydroxyphenyl)-N-methylacrylamide], the figure is more than 1000 nM; as for `CN(C)C(=O)/C=C/c1ccc(-c2ccc(O[C@@H]3C[C@H]4CCC[C@@H](C3)N4)nn2)c(O)c1` [SMSM 19], more than 1000 nM; as for `CNC(=O)/C=C/c1cc(O)c(-c2ccc(N(C)[C@H]3C[C@]4(C)CCC[C@](C)(C3)N4)nn2)cc1F` [SMSM 15, (E)-3-(4-(6-(((1R,3s,5S)-1,5-dimethyl-9-azabicyclo[3.3.1]nonan-3-yl)(methyl)amino)pyridazin-3-yl)-2-fluoro-5-hydroxyphenyl)-N-methylacrylamide], 0.7 nM. As for `CNC(=O)/C=C/c1ccc(-c2ccc(S[C@@H]3C[C@H]4CC[C@@H](C3)N4)nn2)c(O)c1` [SMSM 23, (E)-3-(4-(6-(((1R,3s,5S)-8-azabicyclo[3.2.1]octan-3-yl)thio)pyridazin-3-yl)-3-hydroxyphenyl)-N-methylacrylamide], the figure is 201 nM. In the case of `CNC(=O)/C=C/c1ccc(-c2ccc(O[C@H]3C[C@H]4C[C@@H]3CN4)nn2)c(O)c1` [SMSM 21], the IC50 amounted to 369 nM. This IC50 lies about 1.8-fold higher than the previous one. Consider `CNC(=O)/C=C/c1ccc(-c2ccc(O[C@@H]3C[C@H]4CC[C@@H](C3)N4)nn2)c(O)c1` [SMSM 4, (E)-3-(4-(6-(((1R,3s,5S)-8-azabicyclo[3.2.1]octan-3-yl)oxy)pyridazin-3-yl)-3-hydroxyphenyl)-N-methylacrylamide], for which the IC50 was 7 nM. With `CNC(=O)/C=C/c1ccc(-c2ccc(N(C)[C@@H]3C[C@H]4CC[C@@H](C3)N4)nn2)c(O)c1` [SMSM 3, (E)-3-(4-(6-(((1R,3s,5S)-8-azabicyclo[3.2.1]octan-3-yl)(methyl)amino)pyridazin-3-yl)-3-hydroxyphenyl)-N-methylacrylamide], half-maximal inhibition (IC50) required 8.3 nM. For the molecule `CNC(=O)/C=C/c1ccc(-c2ccc(N(C)[C@H]3C[C@]4(C)CC[C@](C)(C3)N4)nn2)c(O)c1` [SMSM 10, (E)-3-(4-(6-(((1R,3s,5S)-1,5-dimethyl-8-azabicyclo[3.2.1]octan-3-yl)(methyl)amino)pyridazin-3-yl)-3-hydroxyphenyl)-N-methylacrylamide], the half-maximal inhibitory concentration (IC50) came to 1580 nM.
